Values of other authors in patent US8912167B2, “Heparin-based compositions and methods for the inhibition of metastasis” (priority 2011, dated 2014).

Settings: under physiological conditions

For “tetra-[5-(L)-lysyl-amino-O-methylsalicylamide]”, which binding to heparin is on record?
The binding to heparin was “bind heparin tightly and essentially irreversibly”.
